Results reported in patent publication US7211576B2, “Diaminothiazoles” (Hoffmann-La Roche Inc., priority 2004, dated 2007).

Experiments:
human cyclin D1-CDK4 = human cyclin D1-CDK4 (Homo sapiens, UniProt P11802); assay: FlashPlate kinase assay, cyclin D1-CDK4; format: biochemical; conditions: Rb protein substrate, 1 μM ATP, 33P-ATP, 30 minutes room temperature; read-out: CDK4 IC50
human cyclin E-CDK2 = human cyclin E-CDK2 (Homo sapiens, UniProt P24941); assay: FlashPlate kinase assay, cyclin E-CDK2; format: biochemical; conditions: Rb protein substrate, 1 μM ATP, 33P-ATP, 30 minutes room temperature
human cyclin B-CDK1 = human cyclin B-CDK1 (Homo sapiens, UniProt P06493); assay: FlashPlate kinase assay, cyclin B-CDK1; format: biochemical; conditions: Rb protein substrate, 1 μM ATP, 33P-ATP, 30 minutes room temperature
Chain of human cyclin B-CDK1 (P06493 whole entry): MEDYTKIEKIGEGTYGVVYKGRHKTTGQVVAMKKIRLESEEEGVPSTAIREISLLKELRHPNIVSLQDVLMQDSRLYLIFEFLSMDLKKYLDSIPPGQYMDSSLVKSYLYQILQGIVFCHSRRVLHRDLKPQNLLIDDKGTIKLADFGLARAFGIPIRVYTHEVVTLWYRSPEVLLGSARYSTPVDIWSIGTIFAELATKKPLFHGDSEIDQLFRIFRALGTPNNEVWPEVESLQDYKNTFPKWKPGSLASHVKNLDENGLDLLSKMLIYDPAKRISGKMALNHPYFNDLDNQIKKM
Chain of human cyclin B-CDK1 (P14635 whole entry partner): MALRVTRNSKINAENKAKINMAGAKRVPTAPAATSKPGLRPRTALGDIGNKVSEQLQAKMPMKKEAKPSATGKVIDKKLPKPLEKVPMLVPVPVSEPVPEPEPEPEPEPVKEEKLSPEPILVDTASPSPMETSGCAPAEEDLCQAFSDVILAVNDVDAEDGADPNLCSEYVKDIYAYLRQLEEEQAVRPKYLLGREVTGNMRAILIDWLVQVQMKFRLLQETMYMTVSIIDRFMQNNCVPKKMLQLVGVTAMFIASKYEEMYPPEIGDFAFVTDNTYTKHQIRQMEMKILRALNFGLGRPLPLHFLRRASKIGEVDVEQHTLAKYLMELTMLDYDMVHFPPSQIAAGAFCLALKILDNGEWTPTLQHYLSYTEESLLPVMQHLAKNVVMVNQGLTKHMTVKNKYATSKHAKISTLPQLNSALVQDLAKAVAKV

[1] = tested on: HCT116, a colorectal carcinoma cell line; assay: Tetrazolium dye (MTT) proliferation assay; format: cell-based; conditions: Homo sapiens, HCT-116; HCT116 cells, inhibition of cell proliferation
Experimental: Proliferation was evaluated by the tetrazolium dye assay according to the procedure of Denizot and Lang (Denizot, F. and Lang, R. J Immunol Methods 1986, 89, 271–277). The cell line used was HCT116, a colorectal carcinoma cell line obtained from the American Type Cell Culture Collection (ATCC; Rockville, Md.). The cells were grown in McCoy's 5A medium supplemented with 10% FCS and L-glutamine.
Cells were plated at the appropriate seeding density to give logarithmic growth over the course of the assay in a 96-well tissue culture plate. Plates were incubated overnight at 37° C. in a humidified incubator with 5% CO2. The next day, test compounds were serially diluted to four times the final concentration in the appropriate medium containing 1.2% DMSO. One-fourth final volume of each dilution was added in duplicate to the plates containing cells. The same volume of 1.2% DMSO in medium was added to a row of “control wells” such that the final concentration of DMSO in each well was 0.3%. Wells to which no cells were added served as the “blank.” Wells to which no inhibitor was added served as “no inhibitor control.” The plates were) returned to the incubator, and at set time points (determined by their growth curves) plates were analyzed as described below.
3-(4,5-dimethylthiazole-2-yl)-2,5-diphenyl-2H-tetrazolium bromide (thiazolyl blue; MTT; Sigma) was added to each well to yield a final concentration of 1 mg/ml. Plates were returned to the incubator for 2.5–3 hours at 37° C. The MTT-containing medium was removed and the resulting formazan metabolite was solubilized in 100% ethanol with shaking for 15 minutes at room temperature. Absorbance readings were taken in a microtiter plate reader (Dynatech and Molecular Devices plate readers were used interchangeably) at a wavelength of 570 nm with a 650 nm reference. Percent inhibition (% INH) is calculated by subtracting the absorbance of the blank well from all wells, then subtracting the ratio of the average absorbance of each test duplicate (SAVE) by the average of the controls (CAVE) from 1.00. The final number is then multiplied by 100 (% INH=(1.00−SAVE/CAVE)×100). The concentration at which 50% inhibition of cell proliferation is obtained (the IC50) is determined from the linear regression of a plot of the logarithm of the concentration versus percent inhibition.

Chain of human cyclin D1-CDK4 (P11802 whole entry): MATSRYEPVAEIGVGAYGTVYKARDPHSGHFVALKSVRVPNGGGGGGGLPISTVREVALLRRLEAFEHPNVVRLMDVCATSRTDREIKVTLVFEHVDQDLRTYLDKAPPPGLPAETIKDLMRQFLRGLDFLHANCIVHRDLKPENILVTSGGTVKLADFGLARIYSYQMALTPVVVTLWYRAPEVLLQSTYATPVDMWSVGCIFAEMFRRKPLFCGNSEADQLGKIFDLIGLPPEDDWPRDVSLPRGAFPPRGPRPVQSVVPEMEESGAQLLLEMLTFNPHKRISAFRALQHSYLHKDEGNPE
Chain of human cyclin D1-CDK4 (P24385 whole entry partner): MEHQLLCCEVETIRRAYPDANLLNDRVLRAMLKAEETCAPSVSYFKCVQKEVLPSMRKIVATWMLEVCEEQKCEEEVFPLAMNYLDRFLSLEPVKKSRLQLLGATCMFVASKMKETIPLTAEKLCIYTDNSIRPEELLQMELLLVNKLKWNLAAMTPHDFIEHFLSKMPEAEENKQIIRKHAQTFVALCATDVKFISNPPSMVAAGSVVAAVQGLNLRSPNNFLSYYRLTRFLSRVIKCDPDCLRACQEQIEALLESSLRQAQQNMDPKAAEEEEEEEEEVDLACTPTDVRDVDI

| IC50 (human cyclin D1-CDK4) [nM] | IC50 (human cyclin E-CDK2) [nM] | IC50 (human cyclin B-CDK1) [nM] | IC50 [1] [nM] | SMILES |
| --- | --- | --- | --- | --- |
| 7 | 2790 | 810 | 3120 | CN(C)C1CCN(c2ccc(Nc3nc(N)c(C(=O)c4cccc(O)c4)s3)cc2)CC1 [Example 50, {4-Amino-2-[4-(4-dimethylamino-piperidin-1-yl)-phenylamino]-thiazol-5-yl}-(3-hydroxy-phenyl)-methanone] |
| 19 | 3450 | 1610 | 6020 | Nc1nc(Nc2ccc(N3CCC(N4CCCC(O)C4)CC3)cc2)sc1C(=O)c1cccc(O)c1 (centres unmarked) [Example 81, {4-Amino-2-[4-(3-hydroxy-[1,4′]bipiperidinyl-1′-yl)-phenylamino]-thiazol-5-yl}-(3-hydroxy-phenyl)-methanone] |
| 7 | 1670 | 580 | 2820 | Nc1nc(Nc2ccc(N3CCC(N4CCCC4)CC3)cc2)sc1C(=O)c1cccc([N+](=O)[O-])c1 [Example 90, {4-Amino-2-[4-(4-pyrrolidin-1-yl-piperidin-1-yl)-phenylamino]-thiazol-5-yl}-(3-nitro-phenyl)-methanone] |
| 9 | 1820 | 710 | 1640 | Nc1nc(Nc2ccc(N3CCC(N4CCCC(O)C4)CC3)cc2)sc1C(=O)c1cccc([N+](=O)[O-])c1 (centres unmarked) [Example 91, {4-Amino-2-[4-(3-hydroxy-[1,4′]bipiperidinyl-1′-yl)-phenylamino]-thiazol-5-yl}-(3-nitro-phenyl)-methanone] |
| 15 | 1600 | 870 | 2900 | CN(C)C1CCN(c2ccc(Nc3nc(N)c(C(=O)c4cccc([N+](=O)[O-])c4)s3)cc2)CC1 [Example 92, {4-Amino-2-[4-(4-dimethylamino-piperidin-1-yl)-phenylamino]-thiazol-5-yl}-(3-nitro-phenyl)-methanone] |
| 38 | 2390 | 1000 | 3680 | COc1ccc(C(=O)c2sc(Nc3ccc(N4CCC(N5CCCC5)CC4)cc3)nc2N)cc1[N+](=O)[O-] [Example 107, {4-Amino-2-[4-(4-pyrrolidin-1-yl-piperidin-1-yl)-phenylamino]-thiazol-5-yl}-(4-methoxy-3-nitro-phenyl)-methanone] |
| 34 | 2610 | 1290 | 996 | COc1ccc(C(=O)c2sc(Nc3ccc(N4CCC(N5CCCCC5)CC4)cc3)nc2N)cc1[N+](=O)[O-] [Example 108, [4-Amino-2-(4-[1,4′]bipiperidinyl-1′-yl-phenylamino)-thiazol-5-yl]-(4-methoxy-3-nitro-phenyl)-methanone] |
| 45 | 7270 | 940 | 1740 | COc1ccc(C(=O)c2sc(Nc3ccc(N4CCC(N(C)C)CC4)cc3)nc2N)cc1[N+](=O)[O-] [Example 113, {4-Amino-2-[4-(4-dimethylamino-piperidin-1-yl)-phenylamino]-thiazol-5-yl}-(4-methoxy-3-nitro-phenyl)-methanone] |
| 12 | 945 | 2710 | 1370 | CCc1cccc(C(=O)c2sc(Nc3ccc(N4CCC(N5CCCC5)CC4)cc3)nc2N)c1 [Example 114, {4-Amino-2-[4-(4-pyrrolidin-1-yl-piperidin-1-yl)-phenylamino]-thiazol-5-yl}-(3-ethyl-phenyl)-methanone] |

| SMILES | IC50 (human cyclin D1-CDK4) [nM] | IC50 (human cyclin E-CDK2) [nM] | IC50 (human cyclin B-CDK1) [nM] | IC50 [1] [nM] |
| --- | --- | --- | --- | --- |
| N#Cc1cccc(C(=O)c2sc(Nc3ccc(N4CCC(N5CCCC5)CC4)cc3)nc2N)c1 [Example 72, 3-{4-Amino-2-[4-(4-pyrrolidin-1-yl-piperidin-1-yl)-phenylamino]-thiazole-5-carbonyl}-benzonitrile] | 17 | 2050 | 702 | 2500 |
| N#Cc1cccc(C(=O)c2sc(Nc3ccc(N4CCC(N5CCCC(O)C5)CC4)cc3)nc2N)c1 (centres unmarked) [Example 80, 3-{4-Amino-2-[4-(3-hydroxy-[1,4′]bipiperidinyl-1′-yl)-phenylamino]-thiazole-5-carbonyl}-benzonitrile] | 17 | 2580 | 1370 | 3490 |
